Patent US8039639B2, “Kinase inhibitors and methods of use thereof” (Array BioPharma Inc., priority 2006, dated 2011)
Where two headings read alike, the source gives them in different places.

Experiments:
[1] = biological target: CYP1A2 (Homo sapiens, UniProt P05177); assay: CYP inhibition assay (fluorescent probe, recombinant protein); type: in vitro ADME; details: n=1
[2] = biological target: Fyn (Homo sapiens, UniProt P06241); assay: protein kinase IC50 determination (ATP at Km); type: biochemical; details: ATP concentration at Km
[3] = biological target: Abl (T315I) (Homo sapiens, UniProt P00519, T315I); assay: protein kinase IC50 determination (ATP at Km); type: biochemical; details: ATP concentration at Km
[4] = biological target: FGFR1 (Homo sapiens, UniProt P11362); assay: protein kinase IC50 determination (ATP at Km); type: biochemical; details: ATP concentration at Km
[5] = biological target: T1, CYP2C9 (Homo sapiens, UniProt P11712); assay: CYP inhibition assay (LC/MS, pooled human liver microsomes); type: in vitro ADME; details: n=1
T1 construct: using pooled human liver microsomes (n=1); from tissue; host or cells: pooled human liver microsomes

[6] = biological target: T2, CYP2C19 (Homo sapiens, UniProt P33261); assay: as above; type: in vitro ADME; details: n=1, read-out: CYPC19 IC50
T2 construct: using pooled human liver microsomes (n=1); from tissue; host or cells: pooled human liver microsomes

[7] = biological target: CYP2D6 (Homo sapiens, UniProt P10635); assay: CYP inhibition assay (fluorescent probe, recombinant protein); type: in vitro ADME; details: n=1
[8] = test system: TNF-α production in whole blood; assay: TNF-α production in LPS-treated whole blood (ELISA); type: cell-based; details: whole blood treated with LPS, read-out: apparent IC50, inhibition of TNF-α production
[9] = test system: Erk and AKT; assay: phospho-Erk and phospho-AKT in Ang-1 stimulated HUVECs; type: cell-based; details: Homo sapiens, HUVEC, 10 min, 200 ng/mL Ang-1 for 10 minutes, read-out: IC50, downstream effectors Erk and AKT
From the text: Tie2 was then immunopurified (IP) and immunoblotted with anti-phosphotyrosine (pTyr) and anti-Tie2 antibodies to assess the degree of Tie2 autophosphorylation. Lysates were immunoblotted with anti-phospho-Erk and anti-phospho-AKT (Ser473) antibodies, respectively. Signals were quantified and normalized to GAPDH as a loading control. The results were shown in an immunoblot and a graph.

[10] = biological target: Tie2 (Homo sapiens, UniProt Q02763); assay: protein kinase IC50 determination (ATP at Km); type: biochemical; details: ATP concentration at Km
[11] = biological target: Hck (Homo sapiens, UniProt P08631); assay: protein kinase IC50 determination (ATP at Km); type: biochemical; details: ATP concentration at Km
[12] = Pharmacokinetics in mouse; type: in vivo, female Balb/c mice
Description: (§1) Non-compartmental (model independent) methods were used to analyze the plasma concentration time-curves derived from all species as described below. Clearance (Cl), calculated percent extraction ratios (ER %), volume of distribution (Vz), time to […] (t1/2) and exposure (AUC, area under the curve) values are provided below for mouse, rat, and monkey, respectively.
1. […] Blood samples were obtained at 15 and 30 minutes, and 1, 2, 4, 8 and 24 hours after PO dosing, and at 15 and 30 minutes, and 1, 2, 4, and 8 hours for IV administration.

[13] = biological target: Abl (Homo sapiens, UniProt P00519); assay: protein kinase IC50 determination (ATP at Km); type: biochemical; details: ATP concentration at Km
[14] = test system: micronucleus; assay: Micronucleus assay (in vitro); type: cell-based
Description: (§2) hERG assay was performed using a standard patch clamp protocol. AMES assay (bacterial reverse mutation assay) was performed according to protocol. […] In vitro and in vivo micronucleus assays were performed according to protocol.

[15] = test system: p38 pathway; assay: HeLa cell phospho-HSP27 assay, anisomycin-stimulated; type: cell-based; details: Homo sapiens; HeLa cells, 60 min pretreatment, 1 μg/mL anisomycin 60 min; read-out: apparent IC50, p38 pathway in cells (phospho-HSP27 Ser78)
From the text: Cells were labeled with antibodies against the phosphorylated form of HSP27 (Ser78) and GAPDH as a normalization control. Cells were imaged and quantified using a LI-COR Aeriustm imager.

[16] = test system: sodium channel (site 2); assay: Off-target ligand displacement assay, panel of 28 receptors, ion channels and transporters; type: binding; details: at 10 μM; only hit among 28 entities screened
[17] = test system: Collagen Induced Arthritis (CIA); assay: Rat model of collagen induced arthritis (CIA); type: in vivo, Female Lewis rats; details: BID×7, dosed as prodrug Compound 74; for ED50: PO
Description: Female Lewis rats (200 g); n=8 per treatment group were injected with type II collagen/Freund's incomplete adjuvant (300 μL injection of 0.6 mg collagen, dorsal surface Day 0 and Day 6). […] ENBREL® served as a positive control. Compounds were administered on days 11-18. Ankle diameter was measured at day 11 and every day thereafter (FIG. 70). At study end paw weight and microscopic histology were determined. Both hind paws and knees were removed, hind paws weighed and then placed, with knees, in formalin. Following 1-2 days in fixative and 4-5 days in decalcifier, ankle joints and knees were processed, embedded, sectioned and stained with toluidine blue. Ankles and knees were given scores of 0-5 for inflammation, pannus formation and bone resorption.

[18] = test system: RPMI 8226 cells; assay: RPMI 8226 multiple myeloma tumor model; type: in vivo, Female Scid-beige mice
Description: Female Scid-beige mice (17-20 g), n=8 per group, were implanted with 15×10^6 RPMI 8226 cells subcutaneously on the right flank with either vehicle (20% Trappsol, 10 mL/kg, PO, BID×14) or Compound 74 (100 mg/kg active drug, PO, BID×14). Test compounds were administered by oral gavage at the indicated doses and schedules when tumors reached 200±50 mm^3 in size.

[19] = biological target: hERG (Homo sapiens, UniProt Q12809); assay: hERG patch clamp; type: cell-based; details: at 10 μM
Description: as §2

[20] = Pharmacokinetics in rat; type: in vivo, male Sprague-Dawley rats
From the text: as §1
2. […] Blood was sampled at the same time points as listed for the Mouse PK study.

[21] = test system: K562; assay: K562 cell viability (CellTiter Blue); type: cell-based; details: Homo sapiens; K562, 72 hours
From the text: Cell viability was subsequently measured using CellTiter Blue (Promega) to determine IC50 values for each compound.

[22] = biological target: Lyn (Homo sapiens, UniProt P07948); assay: protein kinase IC50 determination (ATP at Km); type: biochemical; details: ATP concentration at Km
[23] = female, Balb/c, plasma, IV: 1 mg/kg
[24] = male, Sprague-Dawley, plasma, IV: 1 mg/kg

Lyn, sequence (P07948 whole entry, species assumed): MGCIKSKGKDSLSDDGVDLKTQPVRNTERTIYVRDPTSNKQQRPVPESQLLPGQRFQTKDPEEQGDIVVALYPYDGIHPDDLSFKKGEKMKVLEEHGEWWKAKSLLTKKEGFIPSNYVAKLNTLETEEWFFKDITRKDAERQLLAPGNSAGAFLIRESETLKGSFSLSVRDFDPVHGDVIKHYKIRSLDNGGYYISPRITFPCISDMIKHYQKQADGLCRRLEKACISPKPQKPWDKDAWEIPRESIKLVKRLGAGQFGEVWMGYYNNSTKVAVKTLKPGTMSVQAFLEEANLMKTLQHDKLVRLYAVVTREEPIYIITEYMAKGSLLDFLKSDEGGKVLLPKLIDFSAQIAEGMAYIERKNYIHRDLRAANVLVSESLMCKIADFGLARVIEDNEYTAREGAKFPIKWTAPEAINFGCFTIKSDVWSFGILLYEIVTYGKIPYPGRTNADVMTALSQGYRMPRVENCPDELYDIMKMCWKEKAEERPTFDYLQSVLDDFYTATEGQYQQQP
FGFR1, sequence (P11362 22-822, species assumed): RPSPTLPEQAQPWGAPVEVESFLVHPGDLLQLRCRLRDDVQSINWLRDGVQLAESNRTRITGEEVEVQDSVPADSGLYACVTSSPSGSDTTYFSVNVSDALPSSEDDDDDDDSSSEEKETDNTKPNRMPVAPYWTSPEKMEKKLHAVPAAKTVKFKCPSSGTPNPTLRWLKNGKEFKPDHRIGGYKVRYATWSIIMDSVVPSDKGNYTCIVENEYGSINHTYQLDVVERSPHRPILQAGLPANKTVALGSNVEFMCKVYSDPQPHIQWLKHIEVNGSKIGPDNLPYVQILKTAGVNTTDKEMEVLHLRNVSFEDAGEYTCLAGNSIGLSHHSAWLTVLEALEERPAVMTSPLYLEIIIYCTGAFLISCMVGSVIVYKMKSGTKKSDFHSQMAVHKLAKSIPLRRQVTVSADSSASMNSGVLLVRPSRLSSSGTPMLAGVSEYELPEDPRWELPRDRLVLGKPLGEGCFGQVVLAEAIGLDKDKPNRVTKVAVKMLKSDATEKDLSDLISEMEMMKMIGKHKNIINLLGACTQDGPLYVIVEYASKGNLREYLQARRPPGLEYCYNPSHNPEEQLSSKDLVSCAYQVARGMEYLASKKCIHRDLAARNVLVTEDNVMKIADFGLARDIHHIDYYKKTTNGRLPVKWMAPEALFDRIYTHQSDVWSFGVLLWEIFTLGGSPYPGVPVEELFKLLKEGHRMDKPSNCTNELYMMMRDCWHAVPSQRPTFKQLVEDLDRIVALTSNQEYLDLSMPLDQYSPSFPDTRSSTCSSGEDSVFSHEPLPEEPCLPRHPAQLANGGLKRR
Hck, sequence (P08631 whole entry, species assumed): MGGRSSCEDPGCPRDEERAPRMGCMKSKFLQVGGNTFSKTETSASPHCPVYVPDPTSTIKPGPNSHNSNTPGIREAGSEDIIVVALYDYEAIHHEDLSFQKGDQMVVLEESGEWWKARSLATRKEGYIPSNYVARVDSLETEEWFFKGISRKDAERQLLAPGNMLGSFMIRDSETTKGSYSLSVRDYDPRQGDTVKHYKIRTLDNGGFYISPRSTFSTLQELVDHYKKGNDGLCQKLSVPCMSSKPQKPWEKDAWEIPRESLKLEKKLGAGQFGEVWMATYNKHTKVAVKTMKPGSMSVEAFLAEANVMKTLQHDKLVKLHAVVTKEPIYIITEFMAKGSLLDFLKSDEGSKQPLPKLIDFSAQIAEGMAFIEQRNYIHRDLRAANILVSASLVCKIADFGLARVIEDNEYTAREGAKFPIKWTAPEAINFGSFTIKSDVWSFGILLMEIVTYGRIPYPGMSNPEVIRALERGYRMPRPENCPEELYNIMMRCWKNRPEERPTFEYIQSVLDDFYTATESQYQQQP
T1 sequence (P11712 whole entry): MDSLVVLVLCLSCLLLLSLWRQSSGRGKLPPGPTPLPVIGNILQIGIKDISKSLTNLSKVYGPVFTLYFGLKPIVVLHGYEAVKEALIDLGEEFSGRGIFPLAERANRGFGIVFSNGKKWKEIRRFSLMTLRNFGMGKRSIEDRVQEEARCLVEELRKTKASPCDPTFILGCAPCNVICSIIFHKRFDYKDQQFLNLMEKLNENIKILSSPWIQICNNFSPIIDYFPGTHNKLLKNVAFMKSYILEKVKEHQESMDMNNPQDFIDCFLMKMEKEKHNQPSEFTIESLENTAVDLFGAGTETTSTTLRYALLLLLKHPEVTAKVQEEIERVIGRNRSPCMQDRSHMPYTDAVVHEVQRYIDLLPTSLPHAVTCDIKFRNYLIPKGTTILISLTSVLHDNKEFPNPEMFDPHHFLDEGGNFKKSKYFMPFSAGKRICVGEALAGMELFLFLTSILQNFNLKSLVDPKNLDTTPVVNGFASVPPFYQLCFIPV
T2 sequence (P33261 whole entry): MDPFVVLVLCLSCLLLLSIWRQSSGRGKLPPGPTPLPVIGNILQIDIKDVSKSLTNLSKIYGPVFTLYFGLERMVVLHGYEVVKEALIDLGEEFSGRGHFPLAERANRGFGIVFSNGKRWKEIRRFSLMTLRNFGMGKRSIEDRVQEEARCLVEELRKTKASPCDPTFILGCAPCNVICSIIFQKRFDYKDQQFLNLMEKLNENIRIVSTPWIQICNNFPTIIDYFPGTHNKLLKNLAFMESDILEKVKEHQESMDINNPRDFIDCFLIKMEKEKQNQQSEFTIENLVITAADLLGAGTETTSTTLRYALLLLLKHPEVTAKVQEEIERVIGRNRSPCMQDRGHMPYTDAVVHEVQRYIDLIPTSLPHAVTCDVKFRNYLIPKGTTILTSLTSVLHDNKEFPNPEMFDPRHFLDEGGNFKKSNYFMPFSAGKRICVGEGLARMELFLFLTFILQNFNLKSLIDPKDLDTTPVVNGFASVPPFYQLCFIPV
hERG, sequence (Q12809 whole entry): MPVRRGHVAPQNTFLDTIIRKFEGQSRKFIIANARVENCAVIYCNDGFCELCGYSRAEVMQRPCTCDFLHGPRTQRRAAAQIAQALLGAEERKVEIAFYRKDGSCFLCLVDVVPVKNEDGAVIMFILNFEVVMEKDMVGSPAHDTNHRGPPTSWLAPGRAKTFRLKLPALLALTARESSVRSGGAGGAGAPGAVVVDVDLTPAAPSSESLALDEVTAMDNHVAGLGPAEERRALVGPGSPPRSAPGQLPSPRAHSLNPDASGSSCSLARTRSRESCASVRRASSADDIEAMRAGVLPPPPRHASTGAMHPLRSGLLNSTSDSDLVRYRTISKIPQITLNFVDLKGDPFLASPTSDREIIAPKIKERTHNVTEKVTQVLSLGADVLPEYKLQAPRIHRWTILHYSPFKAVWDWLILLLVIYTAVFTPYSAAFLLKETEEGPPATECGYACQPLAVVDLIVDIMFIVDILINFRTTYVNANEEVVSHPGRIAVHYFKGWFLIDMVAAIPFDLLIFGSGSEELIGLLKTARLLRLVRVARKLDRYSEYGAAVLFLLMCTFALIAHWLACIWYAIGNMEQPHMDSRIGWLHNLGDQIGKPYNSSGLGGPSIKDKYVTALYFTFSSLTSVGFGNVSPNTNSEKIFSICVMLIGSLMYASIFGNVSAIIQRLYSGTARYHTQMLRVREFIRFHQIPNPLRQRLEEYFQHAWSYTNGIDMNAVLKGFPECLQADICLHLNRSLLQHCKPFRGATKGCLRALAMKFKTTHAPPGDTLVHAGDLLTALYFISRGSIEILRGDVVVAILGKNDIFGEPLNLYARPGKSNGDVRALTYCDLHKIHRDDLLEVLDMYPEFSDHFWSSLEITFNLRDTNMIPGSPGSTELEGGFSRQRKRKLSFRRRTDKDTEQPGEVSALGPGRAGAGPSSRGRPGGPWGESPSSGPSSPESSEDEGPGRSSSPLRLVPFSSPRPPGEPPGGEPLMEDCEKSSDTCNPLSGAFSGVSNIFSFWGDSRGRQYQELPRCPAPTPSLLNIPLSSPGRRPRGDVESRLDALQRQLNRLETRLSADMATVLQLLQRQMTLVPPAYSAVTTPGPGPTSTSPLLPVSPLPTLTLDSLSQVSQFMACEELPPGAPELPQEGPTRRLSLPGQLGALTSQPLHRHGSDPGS
CYP1A2, sequence (P05177 whole entry, species assumed): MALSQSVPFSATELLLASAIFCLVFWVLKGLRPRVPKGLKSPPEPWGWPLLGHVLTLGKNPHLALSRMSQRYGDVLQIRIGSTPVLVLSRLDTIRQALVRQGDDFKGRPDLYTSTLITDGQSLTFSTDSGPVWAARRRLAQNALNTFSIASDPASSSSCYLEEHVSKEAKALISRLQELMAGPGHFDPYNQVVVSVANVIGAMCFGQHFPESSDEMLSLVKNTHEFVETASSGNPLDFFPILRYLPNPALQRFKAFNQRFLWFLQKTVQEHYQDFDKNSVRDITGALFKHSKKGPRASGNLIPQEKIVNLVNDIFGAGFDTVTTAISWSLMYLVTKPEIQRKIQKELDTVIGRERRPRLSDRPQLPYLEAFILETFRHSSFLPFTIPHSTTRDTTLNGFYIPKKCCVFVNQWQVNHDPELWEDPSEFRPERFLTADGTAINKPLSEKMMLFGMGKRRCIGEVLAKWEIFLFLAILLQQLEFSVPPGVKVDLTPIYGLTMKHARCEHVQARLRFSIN
Fyn, sequence (P06241 whole entry, species assumed): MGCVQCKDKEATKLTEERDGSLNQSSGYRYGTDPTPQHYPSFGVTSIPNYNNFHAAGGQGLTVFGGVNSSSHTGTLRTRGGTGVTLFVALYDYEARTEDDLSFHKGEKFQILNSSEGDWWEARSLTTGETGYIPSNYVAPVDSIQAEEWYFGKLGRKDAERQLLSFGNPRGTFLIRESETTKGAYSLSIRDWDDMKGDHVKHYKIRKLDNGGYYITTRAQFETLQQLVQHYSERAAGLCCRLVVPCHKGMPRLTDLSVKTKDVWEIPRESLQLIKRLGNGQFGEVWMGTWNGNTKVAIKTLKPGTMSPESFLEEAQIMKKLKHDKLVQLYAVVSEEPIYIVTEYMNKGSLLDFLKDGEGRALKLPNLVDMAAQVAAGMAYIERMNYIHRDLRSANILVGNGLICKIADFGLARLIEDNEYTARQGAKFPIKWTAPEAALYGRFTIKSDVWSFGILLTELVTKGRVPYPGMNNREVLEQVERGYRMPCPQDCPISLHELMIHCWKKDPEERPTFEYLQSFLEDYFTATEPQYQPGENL

In the case of `Cc1ccc(-n2nc(C(C)(C)C)cc2NC(=O)NCc2cc(F)ccc2Oc2ccc3c(cnn3CCO)c2)cc1` [Compound 72, 1-(3-tert-butyl-1-p-tolyl-1H-pyrazol-5-yl)-3-(5-fluoro-2-(1-(2-hydroxyethyl)-1H-indazol-5-yloxy)benzyl)urea], the IC50 [1] is reported as 25 µM, the IC50 [2] is reported as 0.041 µM and the IC50 [3] is reported as 0.068 µM. The IC50 [4] was 0.028 µM, the IC50 [5] was 5 µM and the IC50 [6] was 25 µM. The IC50 [7] was 3 µM, the IC50 [8] was 0.03 µM and the IC50 [9] was < 0.011 µM. For the same compound, the IC50 [10] was 0.001 µM, the IC50 [11] was 0.026 µM and the AUC ([12]; IV: 1 mg/kg) was “AUC = 6.6 μg-hr/kg”. For the same compound, the ER ([12]; IV: 1 mg/kg) was “ER = 2.8%”, the AUC ([12]; Oral: 10 mg/kg) was “AUC = 10.5 μg-hr/kg” and the F ([12]; Oral: 10 mg/kg) was “F = 16%”. For the same compound, the clearance [12, 23] was 2.6 mL/min/kg, the half-life [12, 23] was 3.9 h and the Vd ([12]; female, Balb/c, plasma, IV: 1 mg/kg, read-out: Vz) was 0.085 L/kg. For the same compound, the Cmax ([12]; female, Balb/c, plasma, Oral: 10 mg/kg) was 1800 ng/mL, the IC50 [13] was 0.004 µM and the “Micronucleus (in vitro)” value [14] was “Negative”. The IC50 [15] was 0.002 µM, the “ligand displacement, sodium channel (site 2)” value [16] was > 50% and the “disease course by the end of the study” value ([17]; rat CIA, 10 mg/kg PO) was “induced disease regression”. For the same compound, the “parameters associated with the disease model” value ([17]; rat CIA, 0.3, 1, 3 or 10 mg/kg PO) was “dose-dependently improved all of the parameters”, the ED50 ([17]; rat CIA, read-out: apparent ED50, ankle diameter) was 1.5 mg/kg and the ED50 ([17]; rat CIA, read-out: apparent ED50, histopathology) was 3 mg/kg. For the same compound, the body weight loss ([18]; RPMI 8226 tumor-bearing Scid-beige mice, throughout treatment) was “less than 10%”, the “effect on tumor growth” value ([18]; RPMI 8226 tumors, 100 mg/kg PO, BID×14, dosed as Compound 74) was “statistically significant effect on tumor growth” and the “% Tumor growth inhibition (TGI)” value ([18]; RPMI 8226 tumors, 100 mg/kg active drug, PO, BID×14, dosed as Compound 74) was 67%. For the same compound, the “hERG Patch Clamp Inhibition” value [19] was 64% Inhibition at 10 μM, the AUC ([20]; IV: 1 mg/kg) was “AUC = 4.7 μg-hr/kg” and the ER ([20]; IV: 1 mg/kg) was “ER = 4.6%”. For the same compound, the AUC ([20]; Oral: 30 mg/kg) was “AUC = 35 μg-hr/kg”, the F ([20]; Oral: 30 mg/kg) was “F = 15%” and the clearance [20, 24] was 3.2 mL/min/kg. It also gave a half-life [20, 24] of 3.9 h, a Vd ([20]; male, Sprague-Dawley, plasma, IV: 1 mg/kg, read-out: Vz) of 0.048 L/kg and a Cmax ([20]; male, Sprague-Dawley, plasma, Oral: 30 mg/kg) of 4500 ng/mL. It also gave an IC50 [21] of 0.062 µM and an IC50 [22] of 0.025 µM.
